# Where a name gives a salt, the structure may show the parent alone.
# Tests used:
# [1] = molecular target: T1, human recombinant PARP1 (Homo sapiens, UniProt P09874); test: PARP inhibitory activity measurement test (Universal Colorimetric PARP Assay kit, Trevigen); type: biochemical; conditions: compound concentration: 10 μM, read-out: PARP1 inhibition rate (%)
# T1 construct: purchased Trevigen 4677-096-K
# Experimental: For evaluating PARP inhibitory activity of the present compound, inhibitory activity of each test compound against human recombinant PARP 1 was measured using Universal Colorimetric PARP Assay kit with Histone-Coated Strip Wells (Cat No.: 4677-096-K) available from Trevigen. The test was conducted according to the procedure in the instruction attached to this kit. The concrete operation will be described below.
# After dissolving the test compound in dimethyl sulfoxide, the solution was diluted with a PARP buffer attached to the kit to prepare a 50 μM test compound solution.
# In each well of a histone-coated 96-well plate, 10 μL of the test compound solution (50 μM), 15 μL of human recombinant PARP1 (33.3 Unit/mL) and 25 μL of PARP cocktail (containing activated DNA and biotinated NAD) were added, and incubated at room temperature for 1 hour (final reaction amount: 50 μL). Each well was washed twice with 200 μL of 0.1% Triton-X-containing Dulbecco's phosphate buffer, and further washed twice with 200 μL of Dulbecco's phosphate buffer, and then 50 μL of Strep-HRP was added, followed by incubation at room temperature for 1 hour. Each well was washed twice with 200 μL of 0.1% Triton-X-containing Dulbecco's phosphate buffer, and further washed twice with 200 μL of Dulbecco's phosphate buffer, and then 50 μL of TACS-Sapphire coloriometric substrate was added, followed by incubation at room temperature for 15 minutes. After stopping the reaction by adding 50 μL of 0.2 M HCl, absorbance at 450 nm (Abs 450) was measured by a microplate reader. The number of examples in each group was 1 to 2.
# Using a well into which dimethyl sulfoxide and a PARP buffer were added in place of the test compound solution and human recombinant PARP1, the above operation was conducted as a negative control.
# Using a well into which a PARP buffer containing dimethyl sulfoxide was added in place of the test compound solution, the above operation was conducted as a positive control.
# PARP1 inhibition rate (%) was calculated according to the following Formula 1. PARP1 inhibition rate(%)=(AbsB−AbsX)/(AbsB−AbsA)×100 [Formula 1]
# AbsA: absorbance of negative control (Abs 450)
# AbsB: absorbance of positive control (Abs 450)
# AbsX: absorbance of test compound-treated group (Abs 450)
# [2] = tested on: rat N-methyl-N-nitrosourea (MNU)-induced retinal degeneration model; test: Retinal degeneration inhibitory activity in rat MNU-induced model (retinal volume by OCT); type: in vivo; conditions: po, 168 h, seventh day, Brown Norway male rats, read-out: Retinal volume reduction inhibition rate (%); for inhibition in vivo at 10 mg/kg: MNU 50 mg/kg i.p., test compound 10 mg/kg orally once 30 minutes before MNU
# Experimental: For examining influence of the present compound on the retinal degeneration, retinal degeneration inhibitory activity of test compound was evaluated, using a rat N-methyl-N-nitrosourea (hereinafter, “MNU”)-induced retinal degeneration model. The rat MNU-induced retinal degeneration model is a model animal in which cell death of retinal photoreceptor cell is induced by administration of MNU which is a DNA alkylation agent, and is generally used as a model animal for chorioretinal degenerative diseases such as retinitis pigmentosa (Exp. Eye. Res., 84(2), 285-292 (2007)).
# By the previous day of MNU administration, retinal volumes of 8-week-old Brown Norway male rats were measured by using optical coherence tomography (OCT) (product of Carl Zeiss, model number: STRATUS OCT Model 3000). An MNU administration liquid was intraperitoneally administered to the rats at a dose of 50 to 60 mg/kg, and on the seventh day after administration, retinal volumes were measured by using OCT. The normal control group underwent no treatment, and retinal volumes were measured on the same day as the MNU administration group. The number of examples in each group was 4 rats (8 eyes).
# (Administration Method) • Test compound-administered group: A solution of each test compound suspended in 1% (w/v) methylcellulose aqueous solution was orally administered once 30 minutes before MNU administration at a dose of 1 to 30 mg/kg. • Normal control group and vehicle-administered group: 1% (w/v) methylcellulose aqueous solution was orally administered once 30 minutes before MNU administration.
# According to the following Formula 2, retinal volume reduction inhibition rate (%) was calculated. Retinal volume reduction inhibition rate(%)=(RVX-pre/RVX-post−RVB-pre/RVB-post)/(RVA-pre/RVA-post−RVB-pre/RVB-post)×100 [Formula 2]
# RVA-pre: retinal volume before MNU administration of normal control group (mm^3)
# RVA-post: retinal volume on the seventh day after MNU administration of normal control group (mm^3)
# RVB-pre: retinal volume before MNU administration of vehicle-administered group (mm^3)
# RVB-post: retinal volume on the seventh day after MNU administration of vehicle-administered group (mm^3)
# RVX-pre: retinal volume before MNU administration of test compound-administered group (mm^3)
# RVX-post: retinal volume on the seventh day after MNU administration of test compound-administered group (mm^3)
# T1 sequence (P09874 whole entry): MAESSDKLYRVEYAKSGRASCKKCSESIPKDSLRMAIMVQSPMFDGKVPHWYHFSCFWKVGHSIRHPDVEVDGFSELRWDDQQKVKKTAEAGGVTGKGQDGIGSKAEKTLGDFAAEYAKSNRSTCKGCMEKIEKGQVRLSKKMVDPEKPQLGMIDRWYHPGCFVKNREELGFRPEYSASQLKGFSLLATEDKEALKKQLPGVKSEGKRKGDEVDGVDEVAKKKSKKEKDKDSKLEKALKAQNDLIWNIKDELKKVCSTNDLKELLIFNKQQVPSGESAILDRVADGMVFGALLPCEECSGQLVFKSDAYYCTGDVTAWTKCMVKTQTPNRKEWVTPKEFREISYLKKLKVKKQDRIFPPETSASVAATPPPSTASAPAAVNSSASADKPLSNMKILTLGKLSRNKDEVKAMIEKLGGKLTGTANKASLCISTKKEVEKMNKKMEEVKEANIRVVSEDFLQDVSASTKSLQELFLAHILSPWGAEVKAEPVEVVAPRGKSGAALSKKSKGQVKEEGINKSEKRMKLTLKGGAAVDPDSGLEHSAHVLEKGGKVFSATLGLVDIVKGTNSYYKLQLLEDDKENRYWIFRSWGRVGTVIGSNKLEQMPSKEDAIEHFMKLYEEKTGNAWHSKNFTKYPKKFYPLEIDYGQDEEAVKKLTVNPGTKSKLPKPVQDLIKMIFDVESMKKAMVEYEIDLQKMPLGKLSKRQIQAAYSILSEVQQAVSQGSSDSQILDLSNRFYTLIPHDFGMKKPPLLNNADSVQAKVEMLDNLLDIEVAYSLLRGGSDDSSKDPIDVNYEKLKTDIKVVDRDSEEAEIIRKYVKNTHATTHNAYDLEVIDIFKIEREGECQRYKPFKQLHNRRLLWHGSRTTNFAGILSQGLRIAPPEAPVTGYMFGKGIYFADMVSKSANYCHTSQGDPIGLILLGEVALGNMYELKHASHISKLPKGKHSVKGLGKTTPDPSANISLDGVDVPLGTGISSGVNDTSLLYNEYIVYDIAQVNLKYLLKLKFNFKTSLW
inhibition at 10 µM [1] [%],Compound,inhibition in vivo at 10 mg/kg [2] [%],"inhibition in vivo at 30 mg/kg ([2]; MNU 60 mg/kg i.p., test compound 30 mg/kg orally once 30 minutes before MNU) [%]"
82,"O=c1[nH]c2cc(CN3CCN(c4nccc5occc45)CC3)cn2c2ccccc12 [Compound 2-36, 2-[4-(Furo[3,2-c]pyridin-4-yl)piperazin-1-ylmethyl]pyrrolo[1,2-a]quinazolin-5(4H)-one]",,
98,"CC(C)Oc1ccc(N2CCN(Cc3cc4[nH]c(=O)c5ccccc5n4c3)CC2)cc1 [Compound 2-38, 2-[4-(4-Isopropoxyphenyl)piperazin-1-ylmethyl]pyrrolo[1,2-a]quinazolin-5(4H)-one]",,
100,"COc1cc(F)ccc1N1CCN(Cc2cc3[nH]c(=O)c4ccccc4n3c2)CC1 [Compound 2-39, 2-[4-(4-Fluoro-2-methoxyphenyl)piperazin-1-ylmethyl]pyrrolo[1,2-a]quinazolin-5(4H)-one]",84,
100,"O=c1[nH]c2cc(CN3CCN(c4ccc5c(c4)OCO5)CC3)cn2c2ccccc12 [Compound 2-40, 2-[4-(1,3-Benzodioxol-5-yl)piperazin-1-ylmethyl]pyrrolo[1,2-a]quinazolin-5(4H)-one]",88,
100,"O=c1[nH]c2cc(CN3CCN(c4ccc(F)cc4)CC3)cn2c2ccsc12 [Compound 2-41, 7-[4-(4-Fluorophenyl)piperazin-1-ylmethyl]pyrrolo[1,2-a]thieno[2,3-e]pyrimidin-4(5H)-one]",,
100,"O=c1[nH]c2cc(CN3CCN(c4ccc(Cl)cc4)CC3)cn2c2ccsc12 [Compound 2-42, 7-[4-(4-Chlorophenyl)piperazin-1-ylmethyl]pyrrolo[1,2-a]thieno[2,3-e]pyrimidin-4(5H)-one]",,
91,"O=c1[nH]c2cc(CN3CCCC3)cn2c2ccsc12 [Compound 2-43, 7-(Pyrrolidin-1-ylmethyl)pyrrolo[1,2-a]thieno[2,3-e]pyrimidin-4(5H)-one]",,
98,"O=c1[nH]c2cc(CN3CCN(c4ccccn4)CC3)cn2c2ccc(F)cc12 [Compound 2-44, 7-Fluoro-2-[4-(pyridin-2-yl)piperazin-1-ylmethyl]pyrrolo[1,2-a]quinazolin-5(4H)-one]",81,
85,"CN(C)CCOc1cc(F)ccc1N1CCN(Cc2cc3[nH]c(=O)c4ccccc4n3c2)CC1 [Compound 2-46, 2-[4-[2-(2-Dimethylaminoethoxy)-4-fluorophenyl]piperazin-1-ylmethyl]pyrrolo[1,2-a]quinazolin-5(4H)-one]",,
99,"O=c1[nH]c2cc(CN3CCC(N4CCOCC4)CC3)cn2c2ccccc12 [Compound 2-47, 2-[4-(Morpholin-4-yl)piperidin-1-ylmethyl]pyrrolo[1,2-a]quinazolin-5(4H)-one]",,
100,"O=c1[nH]c2cc(CN3CCN(c4ccc(O)cc4)CC3)cn2c2ccccc12 [Compound 3-1, 2-[4-(4-Hydroxyphenyl)piperazin-1-ylmethyl]pyrrolo[1,2-a]quinazolin-5(4H)-one]",,
99,"O=C(c1cc2[nH]c(=O)c3ccccc3n2c1)N1CCCNCC1 [Compound 5-1, 2-(Homopiperazine-1-carbonyl)pyrrolo[1,2-a]quinazolin-5(4H)-one hydrochloride]",,
85,"O=C(c1cc2[nH]c(=O)c3ccccc3n2c1)N1CCNCC1 [Compound 5-2, 2-(piperazine-1-carbonyl)pyrrolo[1,2-a]quinazolin-5(4H)-one]",,
90,"O=C(c1cc2[nH]c(=O)c3ccccc3n2c1)N1CCCN(C(=O)C2CC2)CC1 [Compound 6-1, 2-[4-Cyclopropylcarbonylhomopiperazine-1-carbonyl]pyrrolo[1,2-a]quinazolin-5(4H)-one]",,

# Continued, compound first:
Compound,inhibition at 10 µM [1] [%],inhibition in vivo at 10 mg/kg [2] [%],"inhibition in vivo at 30 mg/kg ([2]; MNU 60 mg/kg i.p., test compound 30 mg/kg orally once 30 minutes before MNU) [%]"
"O=c1[nH]c2cc(CN3CCC(c4ccccc4)CC3)cn2c2ccccc12 [Compound 2-5, 2-(4-Phenylpiperidin-1-ylmethyl)pyrrolo[1,2-a]quinazolin-5(4H)-one]",96,16,
"O=c1[nH]c2cc(CN3CC=C(c4ccc(Cl)cc4)CC3)cn2c2ccccc12 [Compound 2-7, 2-[4-(4-Chlorophenyl)-1,2,3,6-tetrahydropyridine-1-ylmethyl]pyrrolo[1,2-a]quinazolin-5(4H)-one]",99,69,
"O=c1[nH]c2cc(CN3CC=C(c4ccc(F)cc4)CC3)cn2c2ccccc12 [Compound 2-8, 2-[4-(4-Fluorophenyl)-1,2,3,6-tetrahydropyridin-1-ylmethyl]pyrrolo[1,2-a]quinazolin-5(4H)-one]",100,39,
"O=c1[nH]c2cc(CN3CCN(c4ccccc4F)CC3)cn2c2ccccc12 [Compound 2-9, 2-[4-(2-Fluorophenyl)piperazin-1-ylmethyl]pyrrolo[1,2-a]quinazolin-5(4H)-one]",99,25,
"O=c1[nH]c2cc(CN3CCN(c4ccc(Cl)cc4)CC3)cn2c2ccccc12 [Compound 2-12, 2-[4-(4-Chlorophenyl)piperazin-1-ylmethyl]pyrrolo[1,2-a]quinazolin-5(4H)-one]",100,,47
"O=c1[nH]c2cc(CN3CCC(c4ccc(F)cc4)CC3)cn2c2ccccc12 [Compound 2-14, 2-[4-(4-Fluorophenyl)piperidin-1-ylmethyl]pyrrolo[1,2-a]quinazolin-5(4H)-one]",100,33,
"COc1ccc(N2CCN(Cc3cc4[nH]c(=O)c5ccccc5n4c3)CC2)cc1 [Compound 2-16, 2-[4-(4-Methoxyphenyl)piperazin-1-ylmethyl]pyrrolo[1,2-a]quinazolin-5(4H)-one]",100,29,
"O=c1[nH]c2cc(CN3CCN(c4ccccn4)CC3)cn2c2ccccc12 [Compound 2-17, 2-[4-(Pyridin-2-yl)piperazin-1-ylmethyl]pyrrolo[1,2-a]quinazolin-5(4H)-one]",100,48,
"O=c1[nH]c2cc(CN3CCN(c4ccc(Cl)cn4)CC3)cn2c2ccccc12 [Compound 2-30, 2-[4-(5-Chloropyridin-2-yl)piperazin-1-ylmethyl]pyrrolo[1,2-a]quinazolin-5(4H)-one]",100,72,
"O=c1[nH]c2cc(CN3CCCC3)cn2c2ccccc12 [Compound 2-34, 2-(Pyrrolidin-1-ylmethyl)pyrrolo[1,2-a]quinazolin-5(4H)-one]",96,,
"O=c1[nH]c2cc(CN3CCN(c4ccc(F)cc4F)CC3)cn2c2ccccc12 [Compound 2-35, 2-[4-(2,4-Difluorophenyl)piperazin-1-ylmethyl]pyrrolo[1,2-a]quinazolin-5(4H)-one]",100,61,

# Source: patent US9062061B2, “Compound having PARP inhibitory activity” (SANTEN PHARMACEUTICAL CO., LTD., priority 2011, dated 2015)
